Results taken from patent publication US6706663B2, “Herbicidal 3-heterocyclic substituted benzisothiazole and benzisoxazole compounds” (Wyeth, priority 2000, dated 2004).

Key:
CYPIR (Cyperus iria) = assay: Flooded paddy, preemergence weed control; assay type: in vivo; settings: rated 3-4 weeks after treatment, 0-9 rating scale
Summary of the method: (§1)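 Greenhouse paddy test, preemergence. Seeds planted in the top 0.5 cm of silt loam soil, which remained flooded at 1.5–3 cm depth. Scored 0-9 by visual comparison with control.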

[1] = system: IPOHE (Ipomoea hederacea); assay: Preemergence herbicidal evaluation; assay type: in vivo, (L.) Jacq.; settings: preemergence, rated 4-5 weeks after treatment
GALAP (Galium aparine) [2] = assay: Preemergence herbicidal evaluation; assay type: in vivo; settings: preemergence, rated 4-5 weeks after treatment
Summary of the method: (§2)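 Test compound is applied in aqueous acetone to cups just after seeding. Cups are watered and maintained on greenhouse benches. Each cup is scored 0–9 by eye relative to a control after four to five weeks.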

ORYSAT (Rice, Tebonnet) = assay: Preemergence herbicidal evaluation; assay type: in vivo, Oryza sativa, (L.) Tebonnet; settings: preemergence, rated 4-5 weeks after treatment
ZEAMX (Corn, Field) [3] = assay: Postemergence herbicidal evaluation; assay type: in vivo, Zea mays, L.
Summary of the method: (§3)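 Seedlings grown for about two weeks were sprayed postemergence and then kept under standard greenhouse care. Injury was rated visually 4–5 weeks after treatment on a 0–9 scale against untreated controls, and ratings from repeat tests were averaged.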

[4] = system: ECHCG (Echinochloa crus-galli); assay: Postemergence herbicidal evaluation; assay type: in vivo, (L.) Beau
Summary of the method: as §3

[5] = system: GLXMAW (Soybean, Williams); assay: Preemergence herbicidal evaluation; assay type: in vivo, Glycine max, (L.) Merr. cv Williams; settings: preemergence, rated 4-5 weeks after treatment
[6] = system: ABUTH (Abutilon theophrasti); assay: Postemergence herbicidal evaluation; assay type: in vivo, Medic.
Summary of the method: as §3

ZEAMX (Corn, Field) [7] = assay: Preemergence herbicidal evaluation; assay type: in vivo, Zea mays, L.; settings: preemergence, rated 4-5 weeks after treatment
[8] = system: CHEAL (Chenopodium album); assay: Postemergence herbicidal evaluation; assay type: in vivo, L.
Summary of the method: as §3

[9] = system: AMBEL (Ambrosia artemisifolia); assay: Postemergence herbicidal evaluation; assay type: in vivo, L.
Summary of the method: as §3

[10] = system: CASOB (Cassia obtusifolia); assay: Postemergence herbicidal evaluation; assay type: in vivo, L.
Summary of the method: as §3

[11] = system: GLXMAW (Soybean, Williams); assay: Postemergence herbicidal evaluation; assay type: in vivo, Glycine max, (L.) Merr. cv Williams
Summary of the method: as §3

[12] = system: CYPSE (Cyperus serotinus); assay: Flooded paddy, preemergence weed control; assay type: in vivo, Rottb.; settings: rated 3-4 weeks after treatment, 0-9 rating scale
Summary of the method: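 Herbicidal effect was scored visually on a 0–9 scale against an untreated control 3–4 weeks after treatment. Compounds were applied preemergence as 50/50 v/v aqueous/acetone mixtures into flood water (1.5–3 cm deep over silt loam), at roughly 0.0080 to 0.1250 kg/ha active ingredient.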

[13] = system: SAGPY (Sagittaria pygmaea); assay: Flooded paddy, preemergence weed control; assay type: in vivo, L.; settings: rated 3-4 weeks after treatment, 0-9 rating scale
Summary of the method: as §1

[14] = system: TRZAWR (Wheat, Winter, cv Riband); assay: Preemergence herbicidal evaluation; assay type: in vivo, Triticum aestivum; settings: preemergence, rated 4-5 weeks after treatment
Summary of the method: as §2

GALAP (Galium aparine) [15] = assay: Postemergence herbicidal evaluation; assay type: in vivo
Summary of the method: as §3

[16] = system: IPOHE (Ipomoea hederacea); assay: Postemergence herbicidal evaluation; assay type: in vivo, (L.) Jacq.
Summary of the method: as §3

[17] = system: CHEAL (Chenopodium album); assay: Preemergence herbicidal evaluation; assay type: in vivo, L.; settings: preemergence, rated 4-5 weeks after treatment
Summary of the method: as §2

[18] = system: AMBEL (Ambrosia artemisifolia); assay: Preemergence herbicidal evaluation; assay type: in vivo, L.; settings: preemergence, rated 4-5 weeks after treatment
Summary of the method: as §2

[19] = system: CASOB (Cassia obtusifolia); assay: Preemergence herbicidal evaluation; assay type: in vivo, L.; settings: preemergence, rated 4-5 weeks after treatment
Summary of the method: as §2

[20] = system: ECHORC (Echinochloa oryzoides); assay: Flooded paddy, preemergence weed control; assay type: in vivo, Echinochloa oryzoides (Ard.) Fritsch.; settings: rated 3-4 weeks after treatment, 0-9 rating scale
Summary of the method: as §1

SMILES: Cc1ccc(-c2nsc3ccc(-n4c(=O)cc(C(F)(F)F)n(C)c4=O)cc23)s1 [Compound 21, 1-methyl-3-[3-(5-methyl-2-thienyl)-1,2-benzisothiazol-5-yl]-6-(trifluoromethyl)uracil]
- herbicidal rating, CYPIR (CYPIR (Cyperus iria); rate 0.0080 kg/ha): 4.0
- herbicidal rating, CYPIR (CYPIR (Cyperus iria); rate 0.0320 kg/ha): 9.0
- herbicidal rating, CYPIR (CYPIR (Cyperus iria); rate 0.1250 kg/ha): 9.0
- IPOHE preemergence herbicidal rating ([1]; Rate 0.0620 kg/ha): 0.0
- IPOHE preemergence herbicidal rating ([1]; Rate 0.1250 kg/ha): 2.0
- IPOHE preemergence herbicidal rating ([1]; Rate 0.2500 kg/ha): 5.0
- GALAP preemergence herbicidal rating (GALAP (Galium aparine) [2]; Rate 0.0620 kg/ha): 3.0
- GALAP preemergence herbicidal rating (GALAP (Galium aparine) [2]; Rate 0.1250 kg/ha): 2.0
- GALAP preemergence herbicidal rating (GALAP (Galium aparine) [2]; Rate 0.2500 kg/ha): 9.0
- ORYSAT preemergence herbicidal rating (ORYSAT (Rice, Tebonnet); Rate 0.0620 kg/ha): 0.0
- ORYSAT preemergence herbicidal rating (ORYSAT (Rice, Tebonnet); Rate 0.1250 kg/ha): 0.5
- ORYSAT preemergence herbicidal rating (ORYSAT (Rice, Tebonnet); Rate 0.2500 kg/ha): 3.5
- Postemergence herbicidal rating, ZEAMX (ZEAMX (Corn, Field) [3]; rate 0.0320 kg/ha): 5.0
- Postemergence herbicidal rating, ZEAMX (ZEAMX (Corn, Field) [3]; rate 0.0620 kg/ha): 5.5
- Postemergence herbicidal rating, ZEAMX (ZEAMX (Corn, Field) [3]; rate 0.1250 kg/ha): 5.5
- Postemergence herbicidal rating, ECHCG ([4]; rate 0.0320 kg/ha): 4.0
- Postemergence herbicidal rating, ECHCG ([4]; rate 0.0620 kg/ha): 4.0
- Postemergence herbicidal rating, ECHCG ([4]; rate 0.1250 kg/ha): 4.0
- GLXMAW preemergence herbicidal rating ([5]; Rate 0.0620 kg/ha): 0.0
- GLXMAW preemergence herbicidal rating ([5]; Rate 0.1250 kg/ha): 0.0
- GLXMAW preemergence herbicidal rating ([5]; Rate 0.2500 kg/ha): 2.0
- Postemergence herbicidal rating, ABUTH ([6]; rate 0.0320 kg/ha): 9.0
- Postemergence herbicidal rating, ABUTH ([6]; rate 0.0620 kg/ha): 9.0
- Postemergence herbicidal rating, ABUTH ([6]; rate 0.1250 kg/ha): 9.0
- ZEAMX preemergence herbicidal rating (ZEAMX (Corn, Field) [7]; Rate 0.0620 kg/ha): 1.0
- ZEAMX preemergence herbicidal rating (ZEAMX (Corn, Field) [7]; Rate 0.1250 kg/ha): 3.5
- ZEAMX preemergence herbicidal rating (ZEAMX (Corn, Field) [7]; Rate 0.2500 kg/ha): 4.5
- Postemergence herbicidal rating, CHEAL ([8]; rate 0.0320 kg/ha): 7.0
- Postemergence herbicidal rating, CHEAL ([8]; rate 0.0620 kg/ha): 9.0
- Postemergence herbicidal rating, CHEAL ([8]; rate 0.1250 kg/ha): 9.0
- Postemergence herbicidal rating, AMBEL ([9]; rate 0.0320 kg/ha): 9.0
- Postemergence herbicidal rating, AMBEL ([9]; rate 0.0620 kg/ha): 9.0
- Postemergence herbicidal rating, AMBEL ([9]; rate 0.1250 kg/ha): 9.0
- Postemergence herbicidal rating, CASOB ([10]; rate 0.0320 kg/ha): 2.0
- Postemergence herbicidal rating, CASOB ([10]; rate 0.0620 kg/ha): 4.0
- Postemergence herbicidal rating, CASOB ([10]; rate 0.1250 kg/ha): 7.0
- Postemergence herbicidal rating, GLXMAW ([11]; rate 0.0320 kg/ha): 5.5
- Postemergence herbicidal rating, GLXMAW ([11]; rate 0.0620 kg/ha): 6.0
- Postemergence herbicidal rating, GLXMAW ([11]; rate 0.1250 kg/ha): 6.0
- herbicidal rating, CYPSE ([12]; rate 0.0080 kg/ha): 0.0
- herbicidal rating, CYPSE ([12]; rate 0.0320 kg/ha): 4.5
- herbicidal rating, CYPSE ([12]; rate 0.1250 kg/ha): 4.5
- herbicidal rating, SAGPY ([13]; rate 0.0080 kg/ha): 0.0
- herbicidal rating, SAGPY ([13]; rate 0.0320 kg/ha): 0.0
- herbicidal rating, SAGPY ([13]; rate 0.1250 kg/ha): 6.0
- TRZAWR preemergence herbicidal rating ([14]; Rate 0.0620 kg/ha): 0.0
- TRZAWR preemergence herbicidal rating ([14]; Rate 0.1250 kg/ha): 1.0
- TRZAWR preemergence herbicidal rating ([14]; Rate 0.2500 kg/ha): 2.0
- Postemergence herbicidal rating, GALAP (GALAP (Galium aparine) [15]; rate 0.0320 kg/ha): 1.0
- Postemergence herbicidal rating, GALAP (GALAP (Galium aparine) [15]; rate 0.0620 kg/ha): 4.0
- Postemergence herbicidal rating, GALAP (GALAP (Galium aparine) [15]; rate 0.1250 kg/ha): 9.0
- Postemergence herbicidal rating, IPOHE ([16]; rate 0.0320 kg/ha): 9.0
- Postemergence herbicidal rating, IPOHE ([16]; rate 0.0620 kg/ha): 9.0
- Postemergence herbicidal rating, IPOHE ([16]; rate 0.1250 kg/ha): 9.0
- CHEAL preemergence herbicidal rating ([17]; Rate 0.0620 kg/ha): 9.0
- CHEAL preemergence herbicidal rating ([17]; Rate 0.1250 kg/ha): 9.0
- CHEAL preemergence herbicidal rating ([17]; Rate 0.2500 kg/ha): 9.0
- AMBEL preemergence herbicidal rating ([18]; Rate 0.0620 kg/ha): 2.0
- AMBEL preemergence herbicidal rating ([18]; Rate 0.1250 kg/ha): 5.5
- AMBEL preemergence herbicidal rating ([18]; Rate 0.2500 kg/ha): 7.5
- CASOB preemergence herbicidal rating ([19]; Rate 0.0620 kg/ha): 0.0
- CASOB preemergence herbicidal rating ([19]; Rate 0.1250 kg/ha): 0.5
- CASOB preemergence herbicidal rating ([19]; Rate 0.2500 kg/ha): 2.0
- herbicidal rating, ECHORC ([20]; rate 0.0080 kg/ha): 4.0
- herbicidal rating, ECHORC ([20]; rate 0.0320 kg/ha): 8.5
- herbicidal rating, ECHORC ([20]; rate 0.1250 kg/ha): 9.0
